# Laboratory results: patent US11912645B2, “Lipopeptide compounds for the treatment of pain disorders” (INSERM (Institut National de la Santé et de la Recherche …, priority 2017, dated 2024)
# Key:
# [1] = system: mouse sensory neurons activated by capsaicin; experiment: Calcium flux in sensory neurons activated by capsaicin (TRPV1 agonist); format: cell-based
# Method: (§1) FIG. 4: C12-Asn-GABA inhibits neuronal activation via the GABA B receptor. Amplitude of intracellular calcium mobilization (ΔF/F; right panel) in mouse sensory neurons and percentage of responding neurons (left panel) pretreated with increasing amounts of C12-Asn-GABA (black circle) or vehicle (HBSS; white circle) and treated with capsaicin (125 nM; A) or a mix of G protein coupled receptor agonists (histamine, serotonin and bradykinin 10 μM each; B). Data are represented as mean±SEM; n=4 independent experiments of 3 wells per condition and 30-80 neurons per well. […] Percentage of responding neurons pretreated with increasing amounts of saclofen (black circle) or vehicle (HBSS; white circle) and treated with C12-Asn-GABA (10 μM) and capsaicin (125 nM; C) or a mix of G protein coupled receptor agonist (histamine, serotonin and bradykinin 10 μM each; D). Data are represented as mean±SEM; n=4 independent experiments of 3 wells per condition and 30-80 neurons per well.
# FIG. 7: C14-Asn-GABA inhibits neuronal activation by capsaicin. Amplitude of intracellular calcium mobilization (F/F; A) in mouse sensory neurons and percentage of responding neurons (B) pretreated with 10 μM of C14-Asn-GABA (black bar) or vehicle (HBSS; white bar) and treated with capsaicin (125 nM). Data are represented as mean±SEM; n=3 independent experiments of 3 wells per condition and 35-82 neurons per well.
# (§2) Male C57B16 mice (6-8 weeks) were used to produce primary cultures of dorsal root ganglia (DRG) sensory neurons for calcium flux experiments, and to perform studies of colorectal distention and intestinal isotonic contraction. All procedures were approved by Institutional Animal Care Committees (CEEA 122).
# To determine whether C12-Asn-GABA or C12-Asn-BABA is capable of signaling to sensory nerves, calcium mobilization studies were performed on primary cultures of mouse dorsal root ganglia (DRG) neurons. […]
# [2] = system: mouse dorsal root ganglia (DRG) neurons; experiment: Calcium mobilization in primary DRG sensory neurons, basal (unstimulated); format: cell-based; conditions: 10 μM
# Method: as §2
# To determine whether C12-Asn-GABA or C12-Asn-BABA is capable of signaling to sensory nerves, calcium mobilization studies were performed on primary cultures of mouse dorsal root ganglia (DRG) neurons. […] The same experiments were thereafter performed in neurons activated by either an agonist of the receptor calcium channel TRPV1 (capsaicin) or by a mix of agonists (histamine, serotonin and bradykinin) for G protein coupled receptors (GPCR) implicated in visceral hypersensitivity. Exposure of neurons to either capsaicin (125 nM) or the mix of GPCR agonists (histamine, bradykinin, serotonin, 10 μM each) induced an increase in calcium flux as shown by the higher % of responding neurons and amplitude of the response (ΔF/F) compared to the vehicle (FIG. 4A, 4B). […] To investigate whether the inhibitory effect of C12-Asn-GABA was associated to the GABA residue, neurons were treated with saclofen (10, 50, and 100 μM), a competitive antagonist of the GABAB receptor. […]
# [3] = system: mouse sensory neurons activated by mix of GPCR agonists (histamine, serotonin, bradykinin); experiment: Calcium flux in sensory neurons activated by mix of GPCR agonists; format: cell-based; conditions: serotonin 10 μM each, pretreatment with increasing amounts of compound
# Method: as §1
# as §2, with “122). […]” for “122).”
# Caco-2 cells = experiment: Absorption across Caco-2 monolayer in transwell chambers; format: in vitro ADME, human; conditions: 800 ng apical, 24 h, LC-HRMS
# Method: FIG. 5: C12-Asn-GABA crosses the epithelial barrier without modifying epithelial cells physiology. Caco-2 cells were cultivated into transwell chambers. After treatment with C12-Asn-GABA (800 ng) at the apical side, C12-Asn-GABA was quantified inside the cells and both the apical and basolateral compartments by LC-MS/MS (A); data are represented as mean±SEM, n=3 experiments of 3 wells per condition. Extracted ion chromatogram at the exact mass of GABA (104.0702 m/z) with a mass accuracy of 5 ppm of the GABA commercial standard (GABA (Std.) and apical and basolateral compartments after loading or not Caco-2 cells with 800 ng of GABA at the apical site (B); representation of one well, n=3 experiments of 3 wells per condition. Paracellular permeability assessed by the passage of FITC-dextran loaded at the apical side (C) and CXCL8 secretion assessed by ELISA (D) were monitored after treatment of Caco-2 cells at the apical side with C12-Asn-GABA (10 μM); data are represented as mean±SEM, n=3 experiments of 3 wells per condition. […]
# Caco-2 cells were grown in Glutamax DMEM (Gibco, Invitrogen life technologies, Paisley, UK) supplemented with 10% heat-inactivated fetal bovine serum (FBS) (Gibco, Invitrogen life technologies, Paisley, UK), 1% nonessential amino acids and 1% antibiotics (100 U/ml penicillin and […] streptomycin (Gibco, Invitrogen life technologies, Grand Island, N.Y., USA) at 37° C. in a 5% C02 water-saturated atmosphere. Cells were seeded on Transwell inserts (Costar, Sigma-Aldrich, Saint-Quentin Fallavier, France) and absorption studies of C12-Asn-GABA and GABA were performed 16 days later. These compounds were quantified by LC-MS/MS in both apical and basolateral chambers as well as in cells. The effect of C12-Asn-GABA (1-100 μM) on paracellular permeability was also measured by mucosal-to-serosal flux of 4 kDa Fluorescein Isothiocyanate (FITC)-labelled dextran as previously described^31. […]
# The initial barrier for any drug absorption is the intestinal epithelial cell wall. […] The transport of GABA alone across the cell monolayer was also assessed. […]
# [4] = system: capsaicin-induced visceral hypersensitivity; experiment: Capsaicin-induced visceral hypersensitivity, visceromotor response to colorectal distension; format: in vivo, mouse; conditions: oral 25 mg/kg, 4 hours before intracolonic capsaicin 100 μg/mouse
# Method: FIG. 6: C12-Asn-GABA inhibits capsaicin-induced visceral hypersensitivity without altering Intestinal contraction. Mice received intracolonic administration of C12-Asn-GABA (10 μM; black symbols) or vehicle (40% ethanol; white symbols) and 30 minutes or 4 hours later colon (A) and blood (B) were harvested in order to quantify C12-Asn-GABA by LC-MS/MS. Data are expressed as mean±SEM, n=8 mice per group. […] Mice received intracolonic administration of C12-Asn-GABA (10 μM; black symbols) or vehicle (40% ethanol; white symbols) and 30 minutes or 4 hours later an intracolonic administration of capsaicin (100 μg/mouse; square) or its vehicle (40% ethanol; circle). Fifteen minutes after capsaicin or vehicle treatment, visceromotor response (VMR) to increasing pressures of colorectal distension was performed. Data are expressed as mean±SEM, n=7-8 mice per group. […] Ex vivo measurement of duodenal mechanical contraction frequency (B) and amplitude (C) in response to Krebs-Ringer solution (control; white bar), to DMSO 0.2% (vehicle; gray bar) or to C12-Asn-GABA (10 μM; black bar). Data are expressed as mean±SEM, n=5-6 per group. Statistical analysis was performed using Kruskal-Wallis analysis of variance and subsequent Dunn's post hoc test.
# FIG. 8: Trimebutine maleate has no effect on capsaicin-induced visceral hypersensitivity. Mice received an oral treatment with vehicle (PEG200, white circle) or with trimebutine maleate (25 mg/kg, black circle) and 4 hours later an intracolonic administration of capsaicin (100 μg/mouse; black and white circle). Fifteen minutes after capsaicin, visceromotor response (VMR) to increasing pressures of colorectal distension was performed. Data are expressed as mean±SEM, n=7-8 mice per group. […]
# In a first set of experiment, we assessed the ability of the C12-Asn-GABA to cross the epithelial barrier, in vivo. […] The impact of C12-Asn-GABA on visceral hypersensitivity was assessed by measuring the visceromotor responses (VMR) to colorectal distension (CRD). […]
compound,measurement,setting,value
CCCCCCCCCCCCCC(=O)NC(CC(N)=O)C(=O)NCCCC(=O)O (stereo not drawn) [C14-Asn-GABA],"calcium flux increase induced by capsaicin (amplitude, % responding neurons)","[1]; 10 μM, pre-treated 5 minutes before capsaicin 125 nM",prevented by C14-Asn-GABA pretreatment
"CCCCCCCCCCCC(=O)N[C@@H](CC(N)=O)C(=O)NC(C)CC(=O)O (stereo partly drawn) [C12-Asn-BABA, C12-Asn-β-aminobutyric]",calcium mobilization under basal (unstimulated) conditions,[2],None of the isomers (10 μM) induced calcium mobilization
same,"calcium flux increase induced by mix of GPCR agonists (% responding neurons, amplitude ΔF/F)",[3],had no effect
same,"calcium flux increase induced by capsaicin (% responding neurons, amplitude ΔF/F)","[1]; capsaicin 125 nM, pretreatment with increasing amounts of compound",had no effect
"NCCCC(=O)O [GABA, gamma-Aminobutyric acid, reference compound]",presence in the basal chamber,Caco-2 cells,not detected
trimebutine maleate [reference compound],hypersensitivity induced by capsaicin (VMR to CRD),[4],has no effect
